According to patent publication US20110306597A1, “Nicotinamide Derivatives” (priority 2008, published 2011):

target: human recombinant H-PGDS (Homo sapiens, UniProt O60760); experiment: Fluorescence Intensity h-PGDS TBA Enzyme Assay; format: biochemical; conditions: 1:175,000 human recombinant H-PGDS, highest inhibitor concentration typically 1 μM
Method in brief: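 Recombinant human H-PGDS preincubated 10 min at room temperature with inhibitor in 100 mM Tris pH 8.0, 100 μM MgCl2, 2.5 mM glutathione, 0.5% DMSO; 5.0 μM PGH2 added, stopped after 42 s with FeCl2/citric acid. Remaining PGH2 measured as MDA–TBA fluorescence (ex 530/em 565 nm); IC50 by 4-parameter fit, 11 concentrations.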

Chain of human recombinant H-PGDS (O60760 whole entry): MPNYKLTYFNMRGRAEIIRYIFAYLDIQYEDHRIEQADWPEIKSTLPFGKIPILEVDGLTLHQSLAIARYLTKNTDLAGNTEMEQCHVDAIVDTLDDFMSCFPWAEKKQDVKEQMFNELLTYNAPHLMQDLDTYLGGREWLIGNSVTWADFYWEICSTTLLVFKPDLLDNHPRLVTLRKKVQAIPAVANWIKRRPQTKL

Compound | IC50 [nM]
COCCCNC(=O)c1ccc(-c2cccc(F)c2)nc1 [Example 442, 6-(3-Fluorophenyl)-N-(3-methoxypropyl)nicotinamide] | 41.3
CC(NC(=O)c1ccc(-c2cccc(F)c2)nc1)c1ccncn1 (stereo not drawn) [Example 443, 6-(3-Fluorophenyl)-N-(1-pyrimidin-4-ylethyl)nicotinamide] | 359
NC(CC(=O)NC(=O)c1ccc(-c2cccc(F)c2)nc1)C1CC1 (stereo not drawn) [Example 444, N-(3-Amino-3-cyclopropylpropanoyl)-6-(3-fluorophenyl) nicotinamide] | 95.2
O=C(NCC(c1ccccc1Cl)N1CCOCC1)c1ccc(-c2cccc(F)c2)nc1 (stereo not drawn) [Example 445, N-[2-(2-Chlorophenyl)-2-morpholin-4-ylethyl]-6-(3-fluorophenyl)nicotinamide] | 589
O=C(NCCc1ccc(O)cc1)c1ccc(-c2cccc(F)c2)nc1 [Example 446, 6-(3-Fluorophenyl)-N-[2-(4-hydroxyphenyl)ethyl] nicotinamide] | 5.33
CC(C)(CO)CNC(=O)c1ccc(-c2cccc(F)c2)nc1 [Example 447, 6-(3-Fluorophenyl)-N-(3-hydroxy-2,2-dimethylpropyl) nicotinamide] | 47.3
Cc1cccc(-c2ccc(C(=O)NCc3nnc(-c4cccnc4)[nH]3)cn2)c1 [Example 448, 6-(3-Methylphenyl)-N-[(5-pyridin-3-yl-4H-1,2,4-triazol-3-yl)methyl]nicotinamide] | 9.13
Cc1cccc(-c2ccc(C(=O)NCc3ccc(S(N)(=O)=O)cc3)cn2)c1 [Example 449, N-[4-(Aminosulfonyl)benzyl]-6-(3-methylphenyl)nicotinamide] | 25.9
CCC(C)NC(=O)c1ccc(-c2cccc(C)c2)nc1 (stereo not drawn) [Example 450, N-sec-Butyl-6-(3-methylphenyl)nicotinamide] | 42.5
Cc1cccc(-c2ccc(C(=O)NCc3ccc(Cl)cc3)cn2)c1 [Example 451, N-(4-Chlorobenzyl)-6-(3-methylphenyl)nicotinamide] | 234
COc1ccc(C(N)CC(=O)NC(=O)c2ccc(-c3cccc(C)c3)nc2)cc1OC (stereo not drawn) [Example 452, N-[3-Amino-3-(3,4-dimethoxyphenyl)propanoyl]-6-(3-methylphenyl) nicotinamide] | 23.6
CSc1ccc(CNC(=O)c2ccc(-c3cccc(C)c3)nc2)cc1 [Example 453, 6-(3-Methylphenyl)-N-[4-(methylthio)benzyl]nicotinamide] | 102
Cc1cccc(-c2ccc(C(=O)NCc3ccc(C(F)(F)F)cc3)cn2)c1 [Example 454, 6-(3-Methylphenyl)-N-[4-(trifluoromethyl)benzyl] nicotinamide] | 149
COC(=O)c1ccc(CNC(=O)c2ccc(-c3cccc(C)c3)nc2)cc1 [Example 455, Methyl 4-[({[6-(3-methylphenyl)pyridin-3-yl]carbonyl}amino)methyl] benzoate] | 95.1
Cc1cccc(-c2ccc(C(=O)NCc3ccc(Cl)c(Cl)c3)cn2)c1 [Example 456, N-(3,4-Dichlorobenzyl)-6-(3-methylphenyl)nicotinamide] | 178
CCOC(=O)C(CNC(=O)c1ccc(-c2ccc(F)cc2)nc1)c1c(F)cccc1F (stereo not drawn) [Example 457, Ethyl 2-(2,6-difluorophenyl)-3-({[6-(4-fluorophenyl)pyridin-3-yl]carbonyl}amino) propanoate] | 428
O=C(NCCC1CNCCO1)c1ccc(-c2ccc(F)cc2)nc1 (stereo not drawn) [Example 458, 6-(4-Fluorophenyl)-N-(2-morpholin-2-ylethyl)nicotinamide] | 697
O=C(Nc1ccncc1)c1ccc(-c2ccc(F)cc2)nc1 [Example 459, 6-(4-Fluorophenyl)-N-pyridin-4-ylnicotinamide] | 222

Compound | IC50 [nM]
NS(=O)(=O)c1ccc(CNC(=O)c2ccc(-c3ccc(F)cc3)nc2)cc1 [Example 460, N-[4-(Aminosulfonyl)benzyl]-6-(4-fluorophenyl) nicotinamide] | ≥ 1000
COc1ccc(CNC(=O)c2ccc(-c3ccc(F)cc3)nc2)cc1OC [Example 461, N-(3,4-Dimethoxybenzyl)-6-(4-fluorophenyl) nicotinamide] | 91.5
O=C(NCc1ccc(Cl)cc1)c1ccc(-c2ccc(F)cc2)nc1 [Example 462, N-(4-Chlorobenzyl)-6-(4-fluorophenyl)nicotinamide] | ≥ 1000
CC(C)CNC(=O)c1ccc(-c2ccc(F)cc2)nc1 [Example 463, 6-(4-Fluorophenyl)-N-isobutylnicotinamide] | 653
O=C(CNC(=O)c1ccc(-c2ccc(F)cc2)nc1)OCc1ccccc1 [Example 464, Benzyl N-{[6-(4-fluorophenyl)pyridin-3-yl]carbonyl}glycinate] | ≥ 1000
O=C(NCc1cccc(F)c1)c1ccc(-c2ccc(F)cc2)nc1 [Example 465, N-(3-Fluorobenzyl)-6-(4-fluorophenyl)nicotinamide] | 345
COc1ccc(C(N)CC(=O)NC(=O)c2ccc(-c3ccc(F)cc3)nc2)cc1OC (stereo not drawn) [Example 466, N-[3-Amino-3-(3,4-dimethoxyphenyl)propanoyl]-6-(4-fluorophenyl)nicotinamide] | ≥ 1000
CN(C)CCNC(=O)c1ccc(-c2ccc(F)cc2)nc1 [Example 467, N-[2-(Dimethylamino)ethyl]-6-(4-fluorophenyl)nicotinamide] | ≥ 1000
CCC1CCN(CCNC(=O)c2ccc(-c3ccc(F)cc3)nc2)CC1 [Example 468, N-[2-(4-Ethylpiperidin-1-yl)ethyl]-6-(4-fluorophenyl)nicotinamide] | 688
O=C(NCCN1CCCC1)c1ccc(-c2ccc(F)cc2)nc1 [Example 469, 6-(4-Fluorophenyl)-N-(2-pyrrolidin-1-ylethyl)nicotinamide] | ≥ 1000
CSc1ccc(CNC(=O)c2ccc(-c3ccc(F)cc3)nc2)cc1 [Example 470, 6-(4-Fluorophenyl)-N-[4-(methylthio)benzyl]nicotinamide] | ≥ 1000
CCOC(=O)CC[C@H](NC(=O)c1ccc(-c2ccc(F)cc2)nc1)C(=O)OCC [Example 471, Diethyl N-{[6-(4-fluorophenyl)pyridin-3-yl]carbonyl}-L-glutamate] | 192
O=C(NCc1cc(F)cc2c1OCOC2)c1ccc(-c2ccc(F)cc2)nc1 [Example 472, N-[(6-Fluoro-4H-1,3-benzodioxin-8-yl)methyl]-6-(4-fluorophenyl)nicotinamide] | 256
O=C(NCc1ccco1)c1ccc(-c2ccc(F)cc2)nc1 [Example 473, 6-(4-Fluorophenyl)-N-(2-furylmethyl)nicotinamide] | 381
O=C(NC1CCN(Cc2ccc(Cl)cc2)C1=O)c1ccc(-c2ccc(F)cc2)nc1 (stereo not drawn) [Example 474, N-[1-(4-Chlorobenzyl)-2-oxopyrrolidin-3-yl]-6-(4-fluorophenyl)nicotinamide] | 734
O=C(NCc1ccc(Cl)c(Cl)c1)c1ccc(-c2ccc(F)cc2)nc1 [Example 475, N-(3,4-Dichlorobenzyl)-6-(4-fluorophenyl)nicotinamide] | ≥ 1000
O=C(NCCN1CCN(Cc2ccccc2)CC1)c1ccc(-c2ccc(F)cc2)nc1 [Example 476, N-[2-(4-Benzylpiperazin-1-yl)ethyl]-6-(4-fluorophenyl)nicotinamide] | ≥ 1000
O=C(NCCN1CCCC1=O)c1ccc(-c2ccc(F)cc2)nc1 [Example 477, 6-(4-Fluorophenyl)-N-[2-(2-oxopyrrolidin-1-yl)ethyl]nicotinamide] | 895
